Assay results from ChEMBL document CHEMBL4428037 (J Med Chem, 2016).
The source made the active and inactive calls. The calls are words filed in the database; no cut-off is given here.

Columns and labels:
[1] = Toxicity in human NSCLC xenografted Balb/c-nu mouse assessed as effect on body weight at 12.5 mg/kg, ip dosed every day for 21 consecutive days; format: organism-based; conditions: in vivo
A549 [2] = experiment: Induction of apoptosis in human A549 cells assessed as necrotic cells level at 10 nM incubated for 24 hrs by Annexin V-FITC/PI staining based FACS flow cytometry (reference value: 0.37%); format: functional
A549 [3] = experiment: Induction of apoptosis in human A549 cells assessed as increase in cleaved caspase-3 level incubated for 24 hrs by Western blotting; format: functional, cell-based
Tubulin (Sus scrofa) [4] = molecular target: T1, Tubulin (Sus scrofa) (UniProt P02554+P02550); experiment: (§1) Inhibition of porcine brain tubulin polymerization incubated for 60 mins by fluorescence-based assay
Tubulin = Tubulin (Sus scrofa, UniProt P02554+P02550); experiment: as §1
[5] = tested on: Non-small cell lung cancer cell line; experiment: Antitumor activity against human NSCLC xenografted in Balb/c-nu mouse assessed as inhibition of tumor growth at 12.5 mg/kg, ip dosed every day for 21 consecutive days and measured every 3 days; format: functional; conditions: 72 h, read-out: TGI
MCF7 = experiment: cells; conditions: Homo sapiens, MCF7, 72 h
A549 [6] = experiment: Induction of apoptosis in human A549 cells assessed as late apoptotic cells level at 40 nM incubated for 24 hrs by Annexin V-FITC/PI staining based FACS flow cytometry (reference value: 2.15%); format: functional
A549 [7] = experiment: Induction of apoptosis in human A549 cells assessed as live cells level at 10 nM incubated for 24 hrs by Annexin V-FITC/PI staining based FACS flow cytometry (reference value: 96.83%); format: functional
A549 [8] = experiment: Induction of apoptosis in human A549 cells assessed as necrotic cells level at 20 nM incubated for 24 hrs by Annexin V-FITC/PI staining based FACS flow cytometry (reference value: 0.37%); format: functional
[9] = Toxicity in human NSCLC xenografted Balb/c-nu mouse assessed as induction of adverse effects at 50 mg/kg, ip dosed every day for 21 consecutive days; format: organism-based; conditions: in vivo
Tubulin (Sus scrofa) [10] = molecular target: T1, Tubulin (Sus scrofa); experiment: Displacement of [3H]colchicine from biotinylated porcine tubulin at 1 uM incubated for 2 hrs by competition scintillation proximity; format: protein assay
A549 [11] = experiment: Induction of apoptosis in human A549 cells assessed as induction of nucleus fragmentation at 40 nM incubated for 24 hrs microscopy; format: functional, cell-based
Tubulin (Sus scrofa) [12] = molecular target: T1, Tubulin (Sus scrofa); experiment: Displacement of [3H]colchicine from biotinylated porcine tubulin at 5 uM incubated for 2 hrs by competition scintillation proximity; format: protein assay
A549 [13] = experiment: Induction of apoptosis in human A549 cells assessed as induction of chromatin condensation at 40 nM incubated for 24 hrs microscopy; format: functional, cell-based
[14] = Toxicity in human NSCLC xenografted Balb/c-nu mouse assessed as induction of adverse effects at 12.5 mg/kg, ip dosed every day for 21 consecutive days; format: organism-based; conditions: in vivo
PC-3 = experiment: Growth inhibition of human PC3 cells incubated for 72 hrs by MTT assay; format: functional, cell-based; conditions: PC-3, 72 h
A549 [15] = experiment: Induction of cell cycle arrest in human A549 cells assessed as accumulation at G2/M phase at 40 nM incubated for 24 hrs by propidium iodide staining based FACS flow cytometry; format: functional
NCI-H460 [16] = experiment: Growth inhibition of human NCI-H460 cells incubated for 48 hrs by MTT assay; format: functional, cell-based; conditions: NCI-H460, 48 h
A549 [17] = experiment: Induction of apoptosis in human A549 cells assessed as live cells level at 40 nM incubated for 24 hrs by Annexin V-FITC/PI staining based FACS flow cytometry (reference value: 96.83%); format: functional
HeLa = experiment: Growth inhibition of human HeLa cells incubated for 72 hrs by MTT assay; format: functional, cell-based
A549 [18] = experiment: Induction of apoptosis in human A549 cells assessed as late apoptotic cells level at 10 nM incubated for 24 hrs by Annexin V-FITC/PI staining based FACS flow cytometry (reference value: 2.15%); format: functional
HUVEC [19] = experiment: Toxicity in HUVEC assessed as effect on cell proliferation at 10 to 40 nM incubated for 8 hrs; format: cell-based; conditions: human, 0.04 µM
A549 [20] = experiment: Induction of apoptosis in human A549 cells assessed as late apoptotic cells level at 20 nM incubated for 24 hrs by Annexin V-FITC/PI staining based FACS flow cytometry (reference value: 2.15%); format: functional
A549 [21] = experiment: Increase in cyclin B1 expression in human A549 cells incubated for 24 hrs by Western blotting; format: functional, cell-based
A549 [22] = experiment: Induction of cell cycle arrest in human A549 cells assessed as accumulation at G2/M phase incubated for 24 hrs by propidium iodide staining based FACS flow cytometry; format: functional
A549 [23] = experiment: Inhibition of colony formation in human A549 cells incubated for 9 days by crystal violet staining based assay; format: functional, cell-based
A549 [24] = experiment: Induction of apoptosis in human A549 cells assessed as necrotic cells level at 40 nM incubated for 24 hrs by Annexin V-FITC/PI staining based FACS flow cytometry (reference value: 0.37%); format: functional
HUVEC [25] = experiment: Inhibition of capillary tube formation in HUVEC assessed as reduction in tube-like structures formation incubated for 8 hrs by fluorescence microscopy based 3D-matrigel assay; format: functional, cell-based; conditions: Homo sapiens
A549 [26] = experiment: Induction of apoptosis in human A549 cells assessed as induction of cytoplasmic membrane blebbing at 40 nM incubated for 24 hrs microscopy; format: functional, cell-based
[27] = tested on: Non-small cell lung cancer cell line; experiment: Antitumor activity against human NSCLC xenografted in Balb/c-nu mouse assessed as induction of delay in tumor volume increase at 50 mg/kg, ip dosed every day for 21 consecutive days and measured every 3 days; format: functional, organism-based
[28] = Toxicity in human NSCLC xenografted Balb/c-nu mouse assessed as effect on body weight at 50 mg/kg, ip dosed every day for 21 consecutive days; format: organism-based; conditions: in vivo
A549 [29] = experiment: Cytotoxicity against human A549 cells assessed as reduction in cell viability at 5 nM to 80 nM incubated for 24 hrs by trypan blue staining assay; format: cell-based; conditions: a549, 24 h, 0.005 µM
NCI-H460 [30] = experiment: Inhibition of colony formation in human NCI-H460 cells at 10 nM incubated for 9 days by crystal violet staining based assay; format: functional; conditions: NCI-H460, 216 h
A549 [31] = experiment: Induction of apoptosis in human A549 cells assessed as early apoptotic cells level at 40 nM incubated for 24 hrs by Annexin V-FITC/PI staining based FACS flow cytometry (reference value: 0.65%); format: functional
NCI-H460 [32] = experiment: Inhibition of colony formation in human NCI-H460 cells incubated for 9 days by crystal violet staining based assay; format: functional, cell-based
[33] = tested on: Non-small cell lung cancer cell line; experiment: Antitumor activity against human NSCLC xenografted in Balb/c-nu mouse assessed as induction of delay in tumor volume increase at 12.5 mg/kg, ip dosed every day for 21 consecutive days and measured every 3 days; format: functional, organism-based
A549 [34] = experiment: Growth inhibition of human A549 cells incubated for 48 hrs by MTT assay; format: functional, cell-based; conditions: A549, 48 h
A549 [35] = experiment: Induction of apoptosis in human A549 cells assessed as early apoptotic cells level at 20 nM incubated for 24 hrs by Annexin V-FITC/PI staining based FACS flow cytometry (reference value: 0.65%); format: functional
A549 [36] = experiment: Induction of apoptosis in human A549 cells assessed as increase in PARP cleavage level incubated for 24 hrs by Western blotting; format: functional, cell-based

inhibition (Tubulin (Sus scrofa) [4]): Dose-dependent effect | IC50 (Tubulin): 4.62 µM | IC50 (MCF7): 0.0323 µM | inhibition (Tubulin (Sus scrofa) [10]): 37% | inhibition (Tubulin (Sus scrofa) [12]): 67% | IC50 (PC-3): 0.019 µM | IC50 (NCI-H460 [16]): 0.0373 µM | IC50 (HeLa): 0.0074 µM | IC50 (A549 [34]): 0.0415 µM
Structure (SMILES): CCOc1cccc(Nc2nn(C)c3c2Cc2cc(OCC)c(OCC(N)=O)cc2-3)c1
Activity [1]: Non-Toxic | Activity (A549 [2]): 0.62% | Activity (A549 [3]): Dose-dependent effect | inhibition in vivo at 12.5 mg/kg [5]: 33.8% | Activity (A549 [6]): 5.47% | Activity (A549 [7]): 95.66% | Activity (A549 [8]): 0.84% | Activity [9]: Non-Toxic | Activity (A549 [11]): Active | Activity (A549 [13]): Active | Activity [14]: Non-Toxic | Activity (A549 [15]): 68.1% | Activity (A549 [17]): 84.24% | Activity (A549 [18]): 2.7% | Activity (HUVEC [19]): Non-Toxic | Activity (A549 [20]): 4.57% | Activity (A549 [21]): Dose-dependent effect | Activity (A549 [22]): Dose-dependent effect | inhibition (A549 [23]): Dose-dependent effect | Activity (A549 [24]): 1.23% | inhibition (HUVEC [25]): Dose-dependent effect | Activity (A549 [26]): Active | Activity [27]: Active | Activity [28]: Non-Toxic | Activity (A549 [29]): Non-Toxic | inhibition at 0.01 µM (NCI-H460 [30]): 97.3% | Activity (A549 [31]): 9.06% | inhibition (NCI-H460 [32]): Dose-dependent effect | Activity [33]: Active | Activity (A549 [35]): 3.78% | Activity (A549 [36]): Dose-dependent effect
